Data reported in patent US5565616A (priority 1994, dated 1996).
Like-named read-outs stand apart in the source and are kept apart here.

Legend:
[1] = Sample pH before SCWO, after five-minute reactor residence time and after reactor cool down; format: physicochemical
Protocol: Fourteen tests were conducted to determine the by-product distribution of DMMP during SCWO at different oxygen concentrations in the presence of additives. Test conditions and procedures were the same as described in Example 1. Additive concentrations were based on achieving a 1:1 molar ratio of Na^+ ions to DMMP. Based on an initial concentration of DMMP of 10,000 mg/L, the initial concentrations of each additive were 3,224 mg/L for NaOH, 4,271 mg/L for Na2 CO3 and 15.4 g/L for Na2 B4 O7 (as Na2 B4 O7.10H2 O).
The pH of each sample was measured within one hour of sample collection. The presence of the additive affected the pH of the sample collected after a five minute reactor residence time only slightly. Since the pH of the initial solution had increased upon addition of the additive, it was expected that the pH of the sample collected at supercritical conditions would also increase. However, the effect was only slightly obvious due most likely to the precipitation of the additives at supercritical conditions. After reactor cool down, the pH of samples collected after cool down increased in the presence of the additive. The pH increase which occurred between the sample collected after five minutes reactor residence time and after reactor cool down was a result of the dissolution of precipitated additive. It is believed that sodium hydroxide, sodium carbonate and sodium borate dissolved after reactor cool down and neutralized the acidic solution which was observed after the five minute reactor residence time.

[2] = cited from earlier work; for Pyridine Conversion: 27.6 MPa
[3] = cited from earlier work
[4] = Source text: Calculations are based on the reported first-order reaction kinetic model
[5] = first-order oxidation, 24.6 MPa, 530-700 °C

O.O.O.O.O.O.O.O.O.O.[Na+].[Na+].[O-]B1OB2OB([O-])OB(O1)O2 [Na2 B4 O7, sodium borate]
pH, 5 Min. Reactor Resid. Time ([1]; hydrolysis): 2.8 | pH, After Reactor Cool Down ([1]; hydrolysis): 7.0 | pH, Initial ([1]; hydrolysis): 9 | pH, 5 Min. Reactor Resid. Time ([1]; partial oxidation): 3.2 | pH, After Reactor Cool Down ([1]; partial oxidation): 7.3 | pH, Initial ([1]; partial oxidation): 9

c1ccncc1 [pyridine]
Pyridine Conversion ([2]; Test 513: 522 °C, 6.6 sec, 1990 mg/L, O2 0.024 mole/L): 74% | Pyridine Conversion ([2]; Test 516: 499 °C, 7.1 sec, 1990 mg/L, O2 0.026 mole/L): 66% | Pyridine Conversion ([2]; Test 524: 499 °C, 7.1 sec, 3050 mg/L, O2 0.031 mole/L): 75% | Pyridine Conversion ([2]; Test 525: 475 °C, 7.8 sec, 1990 mg/L, O2 0.029 mole/L): 25% | Pyridine Conversion ([2]; Test 529: 451 °C, 8.8 sec, 3050 mg/L, O2 0.038 mole/L): 6% | Pyridine Conversion ([2]; Test 541: 522 °C, 6.6 sec, 3050 mg/L, O2 0.027 mole/L): 94% | Pyridine Conversion ([2]; Test 542: 474 °C, 7.8 sec, 3050 mg/L, O2 0.035 mole/L): 22% | Pyridine Conversion ([2]; Test 661: 527 °C, 3.8 sec, 3530 mg/L, O2 0.010 mole/L): 55% | Pyridine Conversion ([2]; Test 668: 525 °C, 3.9 sec, 3530 mg/L, O2 0.014 mole/L): 53% | Pyridine Conversion ([2]; Test 676: 527 °C, 3.8 sec, 3530 mg/L, O2 0.020 mole/L): 68% | pyridine converted ([2]; at 524 °C (Test No. 524)): 75%

sodium hydroxide [NaOH]
pH, 5 Min. Reactor Resid. Time ([1]; hydrolysis): 2.1 | pH, After Reactor Cool Down ([1]; hydrolysis): 5.3 | pH, Initial ([1]; hydrolysis): 12.3 | pH, 5 Min. Reactor Resid. Time ([1]; oxidation): 3.6 | pH, After Reactor Cool Down ([1]; oxidation): 5.0 | pH, Initial ([1]; oxidation): 12.3 | pH, 5 Min. Reactor Resid. Time ([1]; partial oxidation): 2.2 | pH, After Reactor Cool Down ([1]; partial oxidation): 6.0 | pH, Initial ([1]; partial oxidation): 12.3

N [ammonia]
activation energy [3, 5]: 37.5 kcal/mol | pre-exponential factor [3, 5]: 3.16e+06 s⁻¹ | temperature at which oxidation rate becomes appreciable ([3]; supercritical water): greater than 550 °C | Reactor Residence Time Required to Achieve 9% Conversion ([4]; 400 °C): 774 min | Reactor Residence Time Required to Achieve 90% Conversion ([4]; 400 °C): 18888 min | Reactor Residence Time Required to Achieve 99% Conversion ([4]; 400 °C): 37775 min | Reactor Residence Time Required to Achieve 99.9% Conversion ([4]; 400 °C): 56663 min | Reactor Residence Time Required to Achieve 99.99% Conversion ([4]; 400 °C): 75551 min | Reactor Residence Time Required to Achieve 9% Conversion ([4]; 450 °C): 111 min | Reactor Residence Time Required to Achieve 90% Conversion ([4]; 450 °C): 2710 min | Reactor Residence Time Required to Achieve 99% Conversion ([4]; 450 °C): 5421 min | Reactor Residence Time Required to Achieve 99.9% Conversion ([4]; 450 °C): 8131 min | Reactor Residence Time Required to Achieve 99.99% Conversion ([4]; 450 °C): 10842 min | Reactor Residence Time Required to Achieve 9% Conversion ([4]; 500 °C): 20 min | Reactor Residence Time Required to Achieve 90% Conversion ([4]; 500 °C): 500 min | Reactor Residence Time Required to Achieve 99% Conversion ([4]; 500 °C): 1000 min | Reactor Residence Time Required to Achieve 99.9% Conversion ([4]; 500 °C): 1500 min | Reactor Residence Time Required to Achieve 99.99% Conversion ([4]; 500 °C): 2000 min | Reactor Residence Time Required to Achieve 9% Conversion ([4]; 550 °C): 5 min | Reactor Residence Time Required to Achieve 90% Conversion ([4]; 550 °C): 113 min | Reactor Residence Time Required to Achieve 99% Conversion ([4]; 550 °C): 227 min | Reactor Residence Time Required to Achieve 99.9% Conversion ([4]; 550 °C): 340 min | Reactor Residence Time Required to Achieve 99.99% Conversion ([4]; 550 °C): 453 min | Reactor Residence Time Required to Achieve 9% Conversion ([4]; 600 °C): 0.1 min | Reactor Residence Time Required to Achieve 90% Conversion ([4]; 600 °C): 3 min | Reactor Residence Time Required to Achieve 99% Conversion ([4]; 600 °C): 7 min | Reactor Residence Time Required to Achieve 99.9% Conversion ([4]; 600 °C): 10 min | Reactor Residence Time Required to Achieve 99.99% Conversion ([4]; 600 °C): 13 min | reactor residence time required to convert 10% ammonia ([4]; below 450 °C): at least two hours
